Entries after “also recorded” stand apart in the source; their conditions may differ. Like-named read-outs stand apart in the source and are kept apart here. One block for each compound: values may come before it.
Experiments:
[1] = tested on: Plasmodium falciparum 3D7 (chloroquine-sensitive); test: In vitro drug susceptibility assay, 3D7 strain (flow cytometry, SYBR Green I / MitoTracker Deep Red); format: cell-based; details: read-out: IC50 ± SD Pf3D7
Experimental: (§1) The cultures were maintained under an atmosphere of 5% CO2, 5% O2, and 90% N2. Fresh complete medium was provided daily, and rapid-stained (Panotico) blood smears were examined.
(§2) To evaluate the effects of synthetic compounds on the intraerythrocytic development of P. falciparum, we analyzed parasitemia by flow cytometry with 0.3% initial parasitemia and 1% hematocrit in the assay. Plates were incubated with the compounds at concentrations ranging from 0.10 to 100 µM for 72 h. Dual staining with SYBR Green I (SG-I) (Invitrogen, Waltham, MA, USA) and MitoTracker Deep Red (MT-Red) (Invitrogen) were used to label nucleic acids and mitochondria, respectively. Approximately 10,000 cells were counted by an Accuri C6 (Becton Dickinson, San Jose, CA, USA) and analyzed by FlowJo 5 software. Parasitemia was determined from the analysis of dot plots (side scatter versus fluorescence).
(§3) We determined the susceptibility of P. falciparum to the indole compounds and investigated whether CQR parasites responded differently to the compounds. […] We determined the IC50 values for each compound by analyzing viable and non-viable parasites after compound treatment, represented in dot plots (Figure 1H).

[2] = tested on: Plasmodium falciparum Dd2 (chloroquine-resistant); test: In vitro drug susceptibility assay, Dd2 strain (flow cytometry, SYBR Green I / MitoTracker Deep Red); format: cell-based; details: read-out: IC50 ± SD PfDd2
Experimental: as §1, §2, §3

[3] = tested on: P. falciparum 3D7 parasites; test: Effect of 2-sulfenylindoles in combination with 100 nM melatonin on parasitemia; format: cell-based, Plasmodium falciparum; details: 3D7, 48 h; for Parasitemia (%) Treatment with compound (500nM) + Melatonin (100nM): normalized to DMSO control
Experimental: (§4) To evaluate the role of the compounds in parasitemia, 1% 3D7 parasites in 2% hematocrit were incubated for 48 h with 500 nM of the 2-sulfenylindole derivatives. Melatonin (100 nM) was used as a positive control, and DMSO (0.0013% v/v) was used as a negative control. The concentration of DMSO chosen as control was the concentration present in the tested compounds at 500 nM. The activity of the compounds was measured by SG-I and MT-Red staining. The data obtained were normalized to those of the control (DMSO). Additionally, to test the ability of the compounds to affect melatonin activity in parasitemia, 3D7 parasites were incubated with 500 nM indole compounds along with 100 nM melatonin for 48 h.
Following the assumption that compounds resembling melatonin structure might interact through the melatonin signaling pathways, we evaluated the effect of the compounds on melatonin action on parasitemia. Our next step was to study the combination of 2-sulfenylindoles with melatonin in asynchronous 3D7 by incubating parasites simultaneously with 100 nM melatonin and 500 nM of each compound.

[4] = tested on: P. falciparum 3D7 parasites; test: Effects of indole derivatives (500 nM) on parasitemia; format: cell-based, Plasmodium falciparum; details: for effect on parasitemia (in words): 500 nM compound alone, 3D7 asynchronous, 48 h; for activity at 0.5 µM: Plasmodium falciparum, normalized to DMSO control, read-out: Parasitemia (%) Treatment with compound (500nM); for activity at 0.5 µM / decrease in parasitemia / increase in parasitemia: 3D7, 48 h; for decrease in parasitemia / increase in parasitemia: 500 nM compound; for decrease in parasitemia: compared to DMSO control; for increase in parasitemia: compared to DMSO control (100.6%)
Experimental: as §4
After incubation, the final parasitemia was determined using flow cytometry.

P. falciparum 3D7 strain = test: Blood-stage development evaluation by microscopy; format: cell-based, Plasmodium falciparum; details: ring-stage synchronized 3D7, treated at IC50 (30 µM for 20 and 28), monitored every 12 h
Experimental: Ring-stage parasites (10–14 h) at 1% parasitemia in 2% hematocrit were treated with compound 20 and compound 28 at concentrations of 1 and 30 µM in 24-well plates for 48 h. Treatment with chloroquine (20 nM) and DMSO (0.1%) was used as positive and negative controls. Smears were rapid stained (Panotico) every 12 h after treatment (12, 24, 36, 48, and 60 h time points), and we took images of parasites to assess the blood-stage development (Zeiss, Oberkochen, Germany).
During monitoring, parasites continued to develop throughout the cycle in the presence of both compounds. […] To examine its stage specificity, we monitored development every 12 h.
Figure 5 Parasitemia reduction with compound 20 (A) and compound 28 (B) to determine the stage activity. Data are means ± SD. Ring-stage synchronized parasites with sorbitol 5% were treated with chloroquine (20 nM), compound 20 (30 µM), and compound 28 (30 µM). The chosen treatment concentration was the IC50 values obtained for these compounds against the 3D7 parasites. (C) After drug administration, smears of P. falciparum 3D7 strain were taken at 0, 12, 24, 36, 48, and 60 h after drug administration, observing the growth development of treated parasites. * p ≤ 0.05, ** p ≤ 0.01, *** p ≤ 0.001.

Cytotoxicity assay (MTT) = format: cell-based, human; details: human, HEK293T (HEK293) cells, 0.10-100 µM, read-out: CC50 ± SD HEK293
Experimental: HEK293T (human embryonic kidney) cells were cultured in 75 cm^2 vented tissue culture flasks (Greiner Bio-One, Frickenhausen, Germany) at 37 °C in a humidified atmosphere containing 5% CO2 in Dulbecco’s modified […] (Gibco) supplemented with 10% (v/v) fetal bovine serum (Gibco), 100 U/mL penicillin, and 100 μg/mL streptomycin (Sigma). Cytotoxicity was evaluated with the 4,5-dimethylthiazol-2-yl-2,5-diphenyltetrazolium bromide (MTT) cell proliferation assay. Briefly, 10^4 cells/well were seeded in flat-bottom 96-well plates in complete DMEM medium for 24 h, followed by incubation with different concentrations of each compound (0.10–100 µM) for 72 h. DMSO (0.13%) and digitonin were used as the negative and positive controls, respectively. The concentrations of DMSO chosen as control were the concentration present in the tested compounds (from 0.0001% to 0.12%, two-fold dilution). After 72 h, cells were then incubated with the MTT reagent for 3 h, and absorbance was measured at 570 nm using a FlexStation® 3 Multi-Mode Microplate Reader (Molecular Devices, Sunnyvale, CA, USA). Moreover, we calculated the selectivity indexes (SI) to understand whether the compounds were more toxic to parasites than cells, or vice versa, according to the ratio of the CC50 value to the IC50 value for each compound.
We further assessed the toxicity of 2-sulfenylindole compounds against HEK293 cells using the MTT assay with different concentrations of the compounds for 72 h. Table 1 presents all the toxicity data and summarizes the IC50 values of the compounds evaluated in this study for Dd2 and 3D7 strains.

[5] = 500 nM compound + 100 nM melatonin
[6] = Plasmodium falciparum, 3D7, 72 h, asynchronous parasites, 72 h, 0.1-100 µM
[7] = asynchronous parasites, 72 h, 0.1-100 µM
[8] = Plasmodium falciparum, DD2, 72 h, asynchronous parasites, 72 h, 0.1-100 µM

Structure (SMILES): CCN(CC)CCCC(C)Nc1ccnc2cc(Cl)ccc12 (stereo not shown) [Chloroquine, reference compound]
- IC50 ([1]; Plasmodium falciparum, 3D7, 72 h): 0.0223 ± 0.00417 µM
- IC50 ([2]; Plasmodium falciparum, DD2, 72 h): 0.199 ± 0.0262 µM

Structure (SMILES): COC(=O)Cc1c(Sc2ccccc2)[nH]c2ccccc12 [Compound 3]
- effect on melatonin action on parasitemia (in words) [3, 5]: slight increase in parasitemia
- Parasitemia (%) Treatment with compound (500nM) + Melatonin (100nM) [3]: 129.8 ± 6.78%
- effect on parasitemia (in words) [4]: no increase was observed
- activity at 0.5 µM [4]: 98.2 ± 2.28%
- IC50 [1, 6]: < 20 µM
- IC50 [1, 7]: 10.6 ± 5.19 µM
- stage-specific effect on blood-stage development (P. falciparum 3D7 strain): reduced the progress from rings to trophozoites; also recorded: affect ring to trophozoite progression
- CC50 at 72 h (Cytotoxicity assay (MTT)): 15.2 ± 1.36 µM
- IC50 [2, 8]: < 20 µM
- IC50 [2, 7]: 18 ± 1.72 µM

Structure (SMILES): COC(=O)Cc1c(Sc2cccc(O)c2)[nH]c2ccccc12 [Compound 7]
- increase in parasitemia compared to control group ([3]; 500 nM compound + 100 nM melatonin, versus control group (100.7%)): 22.2%
- Parasitemia (%) Treatment with compound (500nM) + Melatonin (100nM) [3]: 122.9 ± 5.60%
- decrease in parasitemia [4]: 4.05%
- activity at 0.5 µM [4]: 96.5 ± 2.39%
- IC50 [1, 6]: 58.2 ± 2.45 µM
- CC50 at 72 h (Cytotoxicity assay (MTT)): 31.6 ± 4.03 µM
- IC50 [2, 8]: 55.4 ± 2.96 µM

Structure (SMILES): COC(=O)Cc1c(Sc2ccccc2C(=O)O)[nH]c2ccccc12 [Compound 8]
- Parasitemia (%) Treatment with compound (500nM) + Melatonin (100nM) [3]: 133.5 ± 8.06%
- activity at 0.5 µM [4]: 102 ± 1.71%
- IC50 [1, 6]: 37.3 ± 3.58 µM
- CC50 at 72 h (Cytotoxicity assay (MTT)): > 100 µM
- IC50 [2, 8]: 43.3 ± 6.51 µM

Structure (SMILES): COC(=O)Cc1c(SCc2ccccc2)[nH]c2ccccc12 [Compound 14]
- Parasitemia (%) Treatment with compound (500nM) + Melatonin (100nM) [3]: 128.5 ± 4.13%
- activity at 0.5 µM [4]: 97.8 ± 3.41%
- IC50 [1, 6]: 20.9 ± 2.97 µM
- CC50 at 72 h (Cytotoxicity assay (MTT)): 23.7 ± 8.54 µM
- IC50 [2, 8]: 37.1 ± 7.66 µM

Structure (SMILES): CCCCCCCCCCCCSc1[nH]c2cc(Cl)ccc2c1CC(=O)OC [Compound 21]
- Parasitemia (%) Treatment with compound (500nM) + Melatonin (100nM) [3]: 111.9 ± 2.78%
- effect on parasitemia (in words) [4]: led to an increase in parasitemia
- increase in parasitemia [4]: 3.8%
- activity at 0.5 µM [4]: 104.4 ± 1%
- IC50 [1, 6]: < 20 µM
- IC50 [1, 7]: 19.1 ± 1.78 µM
- CC50 at 72 h (Cytotoxicity assay (MTT)): > 100 µM
- IC50 [2, 8]: < 20 µM
- IC50 [2, 7]: 16.9 ± 4.66 µM

Structure (SMILES): COC(=O)Cc1c(Sc2ccccc2)[nH]c2ccc(OC)cc12 [Compound 25]
- effect on melatonin action on parasitemia (in words) [3, 5]: did not potentiate or block the effect of melatonin on parasitemia
- Parasitemia (%) Treatment with compound (500nM) + Melatonin (100nM) [3]: 112.8 ± 2.93%
- effect on parasitemia (in words) [4]: led to an increase in parasitemia
- increase in parasitemia [4]: 6.6%
- activity at 0.5 µM [4]: 107 ± 2.46%
- IC50 [1, 6]: 26.5 ± 4.87 µM
- CC50 at 72 h (Cytotoxicity assay (MTT)): 13.1 ± 3.74 µM
- IC50 [2, 8]: 45.5 ± 4.84 µM

Structure (SMILES): c1ccc(Cc2c(Sc3ccccc3)[nH]c3ccccc23)cc1 [Compound 26]
- Parasitemia (%) Treatment with compound (500nM) + Melatonin (100nM) [3]: 110.4 ± 3.18%
- decrease in parasitemia [4]: 7.94%
- activity at 0.5 µM [4]: 92.7 ± 4.17%
- IC50 [1, 6]: < 20 µM
- IC50 [1, 7]: 13.5 ± 2.37 µM
- stage-specific effect on blood-stage development (P. falciparum 3D7 strain): reduced the progress from rings to trophozoites; also recorded: affect ring to trophozoite progression
- CC50 at 72 h (Cytotoxicity assay (MTT)): 34.7 ± 8.44 µM
- IC50 [2, 8]: 35.8 ± 4.64 µM

The next lines start with results.

- IC50 [1, 6]: 54.9 ± 2.25 µM
- IC50 [2, 8]: 43.6 ± 3.06 µM
Structure (SMILES): COC(=O)Cc1c(Sc2ncccn2)[nH]c2ccccc12 [Compound 10]
- Parasitemia (%) Treatment with compound (500nM) + Melatonin (100nM) [3]: 130.2 ± 6.02%
- activity at 0.5 µM [4]: 101 ± 2.14%
- CC50 at 72 h (Cytotoxicity assay (MTT)): > 100 µM

- IC50 [1, 6]: 31.7 ± 5.09 µM
- IC50 [2, 8]: 48.5 ± 2.88 µM
Structure (SMILES): COC(=O)Cc1c(SC(C)(C)C)[nH]c2ccccc12 [Compound 16]
- Parasitemia (%) Treatment with compound (500nM) + Melatonin (100nM) [3]: 127.4 ± 4.10%
- effect on parasitemia (in words) [4]: led to an increase in parasitemia
- increase in parasitemia [4]: 11.2%
- activity at 0.5 µM [4]: 112 ± 1.76%
- CC50 at 72 h (Cytotoxicity assay (MTT)): 26.5 ± 8.7 µM

- IC50 [1, 6]: 25 ± 2.9 µM
- IC50 [2, 8]: 35.4 ± 1.56 µM
Structure (SMILES): CCSc1[nH]c2ccccc2c1CC(=O)OC [Compound 17]
- Parasitemia (%) Treatment with compound (500nM) + Melatonin (100nM) [3]: 123.6 ± 3.11%
- effect on parasitemia (in words) [4]: did not affect parasitemia
- activity at 0.5 µM [4]: 98.6 ± 2.95%
- CC50 at 72 h (Cytotoxicity assay (MTT)): 26.5 ± 4.67 µM

- IC50 [1, 6]: < 20 µM
- IC50 [1, 7]: 13.5 ± 3.24 µM
- IC50 [2, 8]: < 20 µM
- IC50 [2, 7]: 15.7 ± 4.87 µM
Structure (SMILES): COC(=O)Cc1c(SC23CC4CC(CC(C4)C2)C3)[nH]c2ccccc12 [Compound 18]
- Parasitemia (%) Treatment with compound (500nM) + Melatonin (100nM) [3]: 113.9 ± 2.90%
- activity at 0.5 µM [4]: 98 ± 2.61%
- stage-specific effect on blood-stage development (P. falciparum 3D7 strain): reduced the progress from rings to trophozoites; also recorded: affect ring to trophozoite progression
- CC50 at 72 h (Cytotoxicity assay (MTT)): 16.8 ± 2.63 µM

- IC50 [1, 6]: 27.8 ± 2.03 µM
- IC50 [2, 8]: 39.9 ± 1.61 µM
Structure (SMILES): COC(=O)Cc1c(SCCCCO)[nH]c2ccccc12 [Compound 19]
- Parasitemia (%) Treatment with compound (500nM) + Melatonin (100nM) [3]: 118.5 ± 2.85%
- activity at 0.5 µM [4]: 100 ± 1.81%
- CC50 at 72 h (Cytotoxicity assay (MTT)): 28.1 ± 5.46 µM

Source: paper PMC9138683, “Decoding the Role of Melatonin Structure on Plasmodium falciparum Human Malaria Parasites Synchronization Using 2-Sulfenylindoles Derivatives” (Biomolecules, 2022)
